US7772265B2, “2-oxadiazolechromone derivatives” (Merck Patent GmbH, priority 2002, dated 2010)

Assays:
PKB = PKB (Homo sapiens, UniProt P31749); experiment: PKB inhibition (comparative measurement); format: biochemical; details: read-out: IC50 PKB inhibitor
Tie2 = Tie2 (Homo sapiens, UniProt Q02763); experiment: Tie2 inhibition; format: biochemical; details: read-out: IC50 Tie2 inhibitor
Chain of Tie2 (Q02763 23-1124, species assumed): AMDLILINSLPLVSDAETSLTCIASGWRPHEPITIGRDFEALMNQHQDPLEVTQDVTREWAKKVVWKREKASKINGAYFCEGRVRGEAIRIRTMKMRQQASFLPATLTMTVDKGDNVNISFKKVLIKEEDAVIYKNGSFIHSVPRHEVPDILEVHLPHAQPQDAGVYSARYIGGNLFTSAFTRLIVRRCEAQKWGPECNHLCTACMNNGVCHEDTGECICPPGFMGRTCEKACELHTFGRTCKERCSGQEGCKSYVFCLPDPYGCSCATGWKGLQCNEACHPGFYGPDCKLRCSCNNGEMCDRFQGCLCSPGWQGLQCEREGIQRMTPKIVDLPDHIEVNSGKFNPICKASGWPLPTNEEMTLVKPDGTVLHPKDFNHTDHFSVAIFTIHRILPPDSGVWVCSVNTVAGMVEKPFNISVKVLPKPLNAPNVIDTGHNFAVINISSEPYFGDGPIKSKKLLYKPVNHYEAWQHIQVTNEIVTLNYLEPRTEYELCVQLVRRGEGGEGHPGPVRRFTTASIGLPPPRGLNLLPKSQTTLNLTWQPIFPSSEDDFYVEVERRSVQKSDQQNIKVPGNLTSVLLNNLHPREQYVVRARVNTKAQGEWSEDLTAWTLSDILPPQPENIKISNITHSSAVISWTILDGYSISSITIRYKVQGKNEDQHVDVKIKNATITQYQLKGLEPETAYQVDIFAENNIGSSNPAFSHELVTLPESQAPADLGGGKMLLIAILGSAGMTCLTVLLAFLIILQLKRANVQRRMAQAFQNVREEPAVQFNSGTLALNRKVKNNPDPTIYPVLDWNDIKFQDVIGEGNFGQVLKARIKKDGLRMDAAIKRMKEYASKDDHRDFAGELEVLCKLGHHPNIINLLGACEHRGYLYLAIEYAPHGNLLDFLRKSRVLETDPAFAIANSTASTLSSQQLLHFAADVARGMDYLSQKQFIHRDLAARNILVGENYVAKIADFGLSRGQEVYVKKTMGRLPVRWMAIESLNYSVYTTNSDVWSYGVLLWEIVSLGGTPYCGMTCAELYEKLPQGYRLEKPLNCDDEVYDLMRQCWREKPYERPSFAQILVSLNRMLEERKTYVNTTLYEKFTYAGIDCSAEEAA

Chain of PKB (P31749 whole entry, species assumed): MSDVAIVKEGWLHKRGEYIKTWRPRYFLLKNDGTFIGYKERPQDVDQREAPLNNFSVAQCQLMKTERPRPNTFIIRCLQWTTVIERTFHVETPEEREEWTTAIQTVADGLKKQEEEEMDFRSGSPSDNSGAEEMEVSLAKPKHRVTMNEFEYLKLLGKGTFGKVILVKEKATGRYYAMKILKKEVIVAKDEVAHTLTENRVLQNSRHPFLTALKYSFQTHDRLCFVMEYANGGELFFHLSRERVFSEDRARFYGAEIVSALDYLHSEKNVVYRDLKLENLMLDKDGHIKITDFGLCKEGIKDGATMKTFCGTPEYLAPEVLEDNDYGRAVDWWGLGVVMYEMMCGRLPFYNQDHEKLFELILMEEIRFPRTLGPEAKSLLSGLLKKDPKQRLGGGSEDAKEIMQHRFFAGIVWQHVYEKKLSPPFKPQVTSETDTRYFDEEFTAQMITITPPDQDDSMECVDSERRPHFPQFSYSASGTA

IC50 (PKB): > 30 µM
IC50 (Tie2): ≥ 10 µM
Compound: CC(C)(C)c1ccc(-c2noc(-c3cc(=O)c4cc(O)ccc4o3)n2)cc1 [6-hydroxy-2-[3-(4-tert-butylphenyl)-1,2,4-oxadiazol-5-yl]-chromone]
